Like-named read-outs stand apart in the source and are kept apart here.
Assays:
[1] = tested on: NC/Nga mice; details: cited from earlier work
[2] = in vivo
Method: In order to clarify the relationship between the amount of DGLA orally ingested in humans and the internal DGLA level, the amount of DGLA orally ingested was investigated by examination of the diet, and after drawing blood, the amount of DGLA in the serum phospholipids was determined. The subjects were eleven healthy males aged 60-70, and were asked to keep a diary of the content of their diets. From the diary, the amount ingested by each food material was determined for meat, eggs, and seafood known to contain DGLA, and using the DGLA content of each food material calculated from “Fourth revised [sequence] […] From the amount of DGLA ingested per week, the mean amount of DGLA ingested per day was calculated for each person.
On the other hand, blood was drawn the day after the last entry of the diary, and for the serum phospholipid fractions obtained, the fatty acid composition was analyzed according to a standard method. Thus, from the serum the lipid component extracted by the Folch method, a standard method, and the lipid was fractionated on a thin layer chromatography (the developing solution is hexane/diethyl ether=7/3) to obtain the phospholipid fraction. […] The fatty acid methyl ester mixture was analyzed by a capillary gas chromatography to obtain DGLA (% by weight) in the total fatty acids in the serum phospholipid.

[3] = tested on: eosinophil migration; details: guinea pigs, cited from earlier work

Compound: CC/C=C\C/C=C\C/C=C\CCCCCCCC(=O)O [ALA, α-linolenic acid]
- prevention of atopic dermatitis (correction of dermatitis symptoms and blood IgE) ([1]; same mouse model, diet containing a large amount of ALA, exact dose not known): no effect of preventing atopic dermatitis

Compound: CCCCC/C=C\C/C=C\C/C=C\CCCCCCC(=O)O [DGLA, dihomo-γ-linolenic acid]
- amount of DGLA required to increase DGLA in serum phospholipid about 3% by weight [2]: about 100 mg per day
- increase of DGLA in the serum phospholipid with each increase of about 32 mg in the amount of DGLA ingested [2]: 1 % by weight

Compound: CC/C=C\C/C=C\C/C=C\C/C=C\C/C=C\C/C=C\CCC(=O)OCC [DHA ethylester]
- eosinophil migration in the delayed type allergy ([3]; intraperitoneal administration of 50 mg): can inhibit eosinophil migration

Compound: CC/C=C\C/C=C\C/C=C\C/C=C\C/C=C\CCCC(=O)OCC [EPA ethylester]
- eosinophil migration in the delayed type allergy ([3]; intraperitoneal administration of 100 mg): can inhibit eosinophil migration

Compound: CCCCC/C=C\C/C=C\C/C=C\CCCCC(=O)O [GLA, γ-linolenic acid]
- formation of atopic dermatitis and IgE production ([1]; NC/Nga mice, oral ingestion about 1250 mg/kg/day): effects of inhibiting the formation of atopic dermatitis and IgE production

— patent US10342773B2, “Composition containing dihomo-γ-linolenic acid (DGLA) as the active ingredient” (SUNTORY HOLDINGS LIMITED, priority 2005, dated 2019)
